Data reported in ChEMBL document CHEMBL1144372, “Novel 2-amino-4-oxo-5-arylthio-substituted-pyrrolo[2,3-d]pyrimidines as nonclassical antifolate inhibitors of thymidylate synthase” (Bioorg Med Chem Lett, 2005).

How the values were obtained:
[1] = target: T1, Dihydrofolate reductase (Homo sapiens, UniProt P00374); assay: Inhibitory concentration against human dihydrofolate reductase
T1 sequence (P00374 whole entry): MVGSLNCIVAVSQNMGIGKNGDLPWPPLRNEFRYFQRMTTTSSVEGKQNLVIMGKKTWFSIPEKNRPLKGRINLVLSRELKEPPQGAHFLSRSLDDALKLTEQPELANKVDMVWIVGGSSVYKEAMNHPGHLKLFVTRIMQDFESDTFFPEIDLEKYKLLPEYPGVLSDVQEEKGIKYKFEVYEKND

[2] = Inhibitory concentration against Escherichia coli dihydrofolate reductase
[3] = target: Thymidylate synthase (Homo sapiens, UniProt P04818)
Description: Inhibitory concentration against human thymidylate synthase

[4] = target: Thymidylate synthase (Escherichia coli, UniProt C3SWJ7); assay: Inhibitory concentration against Escherichia coli thymidylate synthase
[5] = system: MDA-MB-231; assay: Growth inhibitory concentration against human MDA-MB-231 cells; assay type: functional
[6] = system: HT-29; assay: Growth inhibitory concentration against human HT-29 cells; assay type: functional
[7] = system: MOLT-4; assay: Growth inhibitory concentration against human MOLT-4 cells; assay type: functional

Thymidylate synthase (Homo sapiens, UniProt P04818), sequence (P04818 whole entry): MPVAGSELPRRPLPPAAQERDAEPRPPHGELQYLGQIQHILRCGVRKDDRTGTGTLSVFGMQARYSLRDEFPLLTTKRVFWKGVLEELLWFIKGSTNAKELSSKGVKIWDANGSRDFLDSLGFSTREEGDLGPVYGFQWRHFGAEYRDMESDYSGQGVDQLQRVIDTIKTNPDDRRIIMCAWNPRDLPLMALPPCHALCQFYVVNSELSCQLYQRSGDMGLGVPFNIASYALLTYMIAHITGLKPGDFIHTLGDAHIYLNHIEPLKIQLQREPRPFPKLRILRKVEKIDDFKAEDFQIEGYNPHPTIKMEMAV
Thymidylate synthase (Escherichia coli, UniProt C3SWJ7), sequence (C3SWJ7 whole entry): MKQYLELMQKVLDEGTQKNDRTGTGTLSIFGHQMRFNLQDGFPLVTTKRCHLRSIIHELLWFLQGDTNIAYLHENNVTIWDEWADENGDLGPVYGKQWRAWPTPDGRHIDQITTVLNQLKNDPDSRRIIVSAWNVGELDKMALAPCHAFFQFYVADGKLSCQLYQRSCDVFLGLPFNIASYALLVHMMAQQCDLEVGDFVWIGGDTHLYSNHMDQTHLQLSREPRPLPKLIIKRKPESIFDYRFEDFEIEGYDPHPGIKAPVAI

| SMILES | IC50 [1] | IC50 [2] | IC50 [3] | IC50 [4] | GI50 [5] | GI50 ([5]; Homo sapiens, MDA-MB-231) | GI50 [6] | GI50 [7] |
| --- | --- | --- | --- | --- | --- | --- | --- | --- |
| Cc1[nH]c2nc(N)nc(O)c2c1Sc1ccc(F)c(Cl)c1 | > 31 µM | > 31 µM | 830 nM | – | – | – | – | – |
| Cc1[nH]c2nc(N)nc(O)c2c1Sc1cc([N+](=O)[O-])cc([N+](=O)[O-])c1 | – | > 27 µM | 23000 nM | > 23 µM | – | – | – | – |
| Cc1[nH]c2nc(N)nc(O)c2c1Sc1cccc(Cl)c1 | > 32 µM | > 33 µM | 1400 nM | – | – | – | – | – |
| Cc1[nH]c2nc(N)nc(O)c2c1Sc1ccc(Cl)c([N+](=O)[O-])c1 | – | > 28 µM | 460 nM | 23 µM | – | – | – | – |
| Cc1[nH]c2nc(N)nc(O)c2c1Sc1cc(F)cc(F)c1 | > 32 µM | > 32 µM | 2700 nM | – | – | – | – | – |
| Cc1[nH]c2nc(N)nc(O)c2c1Sc1ccc(C#N)cc1 | > 34 µM | > 34 µM | 280 nM | – | – | – | – | – |
| Cc1[nH]c2nc(N)nc(O)c2c1Sc1cccc(F)c1 | – | > 33 µM | 2800 nM | > 28 µM | – | – | – | – |
| Cc1[nH]c2nc(N)nc(O)c2c1Sc1ccc(F)c(F)c1 | > 32 µM | > 32 µM | 900 nM | – | – | – | – | – |
| Cc1[nH]c2nc(N)nc(O)c2c1Sc1cc(C(F)(F)F)cc(C(F)(F)F)c1 | > 25 µM | > 25 µM | > 21000 nM | – | – | – | – | – |
| Cc1[nH]c2nc(N)nc(O)c2c1Sc1ccc(Br)c(Cl)c1 | > 26 µM | > 26 µM | 220 nM | – | – | – | – | – |
| Cc1[nH]c2nc(N)nc(O)c2c1Sc1ccc(F)cc1 | > 32 µM | > 33 µM | 1400 nM | – | – | – | – | – |
| Cc1[nH]c2nc(N)nc(O)c2c1Sc1ccc(C(F)(F)F)cc1 | > 29 µM | > 29 µM | 800 nM | – | – | – | – | – |
| Cc1[nH]c2nc(N)nc(O)c2c1Sc1cccc(Br)c1 | – | > 28 µM | 1200 nM | > 24 µM | – | – | – | – |
| Cc1[nH]c2nc(N)nc(O)c2c1Sc1cc(Cl)cc(Cl)c1 | – | > 29 µM | 2400 nM | > 24 µM | – | – | – | – |
| Cc1[nH]c2nc(N)nc(O)c2c1Sc1ccc(Br)c([N+](=O)[O-])c1 | – | > 25 µM | 210 nM | 11 µM | 3.28 µM | 6.55 µM | 6.18 µM | 4.23 µM |
| Cc1[nH]c2nc(N)nc(O)c2c1Sc1ccc(OC(F)(F)F)cc1 | – | > 28 µM | 2300 nM | > 23 µM | – | – | – | – |
| Cc1[nH]c2nc(N)nc(O)c2c1Sc1ccc(Br)cc1 | > 28 µM | 2.8 µM | 460 nM | – | – | – | – | – |
